ChEMBL document CHEMBL1128536, “Tyrosine kinase inhibitors. 5. Synthesis and structure-activity relationships for 4-[(phenylmethyl)amino]- and 4-(phenylamino)quinazolines as potent adenosine 5'-triphosphate binding site inhibitors of the tyrosine kinase domain of the epidermal growth factor receptor” (J Med Chem, 1995)

Molecular target: T1, Epidermal growth factor receptor (Homo sapiens, UniProt P00533)
Assay: Inhibition of Epidermal growth factor receptor from A431 cells

T1 sequence (P00533 whole entry): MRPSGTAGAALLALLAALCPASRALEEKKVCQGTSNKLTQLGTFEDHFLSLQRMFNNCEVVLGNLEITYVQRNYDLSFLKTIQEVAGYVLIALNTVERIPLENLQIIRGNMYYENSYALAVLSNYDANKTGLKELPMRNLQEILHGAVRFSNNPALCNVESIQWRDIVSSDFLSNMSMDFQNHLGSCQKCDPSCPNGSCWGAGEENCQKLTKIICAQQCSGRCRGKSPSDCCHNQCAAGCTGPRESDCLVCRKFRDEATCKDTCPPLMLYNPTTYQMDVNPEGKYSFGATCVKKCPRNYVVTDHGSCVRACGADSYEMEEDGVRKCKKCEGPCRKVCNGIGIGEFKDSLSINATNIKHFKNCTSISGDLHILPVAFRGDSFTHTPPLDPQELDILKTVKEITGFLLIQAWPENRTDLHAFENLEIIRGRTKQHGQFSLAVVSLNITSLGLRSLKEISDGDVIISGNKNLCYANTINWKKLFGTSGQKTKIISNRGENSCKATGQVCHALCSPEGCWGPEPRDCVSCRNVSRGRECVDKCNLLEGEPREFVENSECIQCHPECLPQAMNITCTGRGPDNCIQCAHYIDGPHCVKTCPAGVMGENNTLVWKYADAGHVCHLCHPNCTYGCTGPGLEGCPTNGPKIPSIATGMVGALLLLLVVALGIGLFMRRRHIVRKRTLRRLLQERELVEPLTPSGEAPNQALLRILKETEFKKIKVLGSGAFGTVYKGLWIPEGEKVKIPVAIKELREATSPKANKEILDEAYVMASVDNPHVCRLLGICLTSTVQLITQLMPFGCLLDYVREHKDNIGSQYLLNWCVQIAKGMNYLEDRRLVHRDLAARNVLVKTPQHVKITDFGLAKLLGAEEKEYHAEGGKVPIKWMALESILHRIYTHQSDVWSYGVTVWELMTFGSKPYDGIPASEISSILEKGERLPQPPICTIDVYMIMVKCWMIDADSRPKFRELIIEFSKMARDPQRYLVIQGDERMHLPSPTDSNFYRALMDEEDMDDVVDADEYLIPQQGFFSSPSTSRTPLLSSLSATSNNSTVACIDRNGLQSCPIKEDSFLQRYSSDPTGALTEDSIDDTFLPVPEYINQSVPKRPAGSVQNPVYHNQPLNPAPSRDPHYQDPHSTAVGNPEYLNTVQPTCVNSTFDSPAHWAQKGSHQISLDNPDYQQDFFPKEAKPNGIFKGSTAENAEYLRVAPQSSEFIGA

IC50	SMILES
0.32 µM	c1ccc(CNc2ncnc3ccccc23)cc1
0.355 µM	O=[N+]([O-])c1cccc2ncnc(Nc3cccc(Br)c3)c12
> 10 µM	O=[N+]([O-])c1cccc2c(NCc3ccccc3)ncnc12
> 10 µM	Nc1cccc2c(NCc3ccccc3)ncnc12
0.974 µM	COc1cccc2c(Nc3cccc(Br)c3)ncnc12
0.00017 µM	Oc1cc2ncnc(Nc3cccc(Br)c3)c2cc1O

Molecular target: T1, Epidermal growth factor receptor
Assay: Evaluation of inhibitory activity against phospholipase C-gamma1 phosphorylation by Epidermal growth factor receptor enzyme isolated from A431 cells.

IC50	SMILES
0.056 µM	COc1cc2ncnc(NCc3ccccc3)c2cc1O
5.9 µM	O=[N+]([O-])c1ccc2c(NCc3ccccc3)ncnc2c1
10 µM	COc1ccc(CNc2ncnc3ccccc23)cc1
7 µM	Clc1ccc(CNc2ncnc3ccccc23)cc1
0.756 µM	Brc1cccc(Oc2ncnc3ccccc23)c1
> 10 µM	Brc1cccc(Nc2cnnc3ccccc23)c1
> 10 µM	O=[N+]([O-])c1ccc2ncnc(NCc3ccccc3)c2c1
0.139 µM	COc1cccc2ncnc(Nc3cccc(Br)c3)c12
> 10 µM	O=[N+]([O-])c1cccc2c(Nc3cccc(Br)c3)ncnc12
> 10 µM	Nc1cccc2ncnc(NCc3ccccc3)c12
8 µM	O=[N+]([O-])c1cccc2ncnc(NCc3ccccc3)c12
> 1 µM	Brc1cccc(Nc2nnnc3ccccc23)c1
100 µM	CN(c1ccccc1)c1ncnc2ccccc12
0.01 µM	COc1cc2ncnc(NCc3ccccc3)c2cc1OC
> 100 µM	Brc1cccc(Nc2nncc3ccccc23)c1
0.058 µM	COc1ccc2c(NCc3ccccc3)ncnc2c1
0.00012 µM	Nc1cc2ncnc(Nc3cccc(Br)c3)c2cc1N
0.897 µM	O=[N+]([O-])c1ccc2ncnc(Nc3cccc(Br)c3)c2c1

IC50	SMILES
0.023 µM	Clc1cccc(Nc2ncnc3ccccc23)c1
4.9 µM	COc1cccc2ncnc(NCc3ccccc3)c12
> 1 µM	Nc1ccc2c(NCc3ccccc3)ncnc2c1
> 100 µM	Brc1cccc(Nc2cnc3ccccc3n2)c1
1.4 µM	Nc1ccc2ncnc(NCc3ccccc3)c2c1
0.2 µM	COc1ccc2ncnc(NCc3ccccc3)c2c1
0.105 µM	Nc1cccc2c(Nc3cccc(Br)c3)ncnc12
0.439 µM	Nc1cccc2ncnc(Nc3cccc(Br)c3)c12
0.588 µM	COc1cc2c(NCc3ccccc3)ncnc2cc1O
5.5 µM	Brc1cccc(Nc2ccnc3ccccc23)c1
> 100 µM	Brc1cccc(Nc2nccc3ccccc23)c1
> 10 µM	COc1cccc2c(NCc3ccccc3)ncnc12
0.91 µM	Cc1cccc(Nc2ncnc3ccccc23)c1
0.348 µM	COc1ccc2ncnc(Nc3cccc(Br)c3)c2c1
0.577 µM	FC(F)(F)c1cccc(Nc2ncnc3ccccc23)c1
0.08 µM	Ic1cccc(Nc2ncnc3ccccc23)c1
0.01 µM	COc1ccc2c(Nc3cccc(Br)c3)ncnc2c1
1 µM	O=[N+]([O-])c1ccc2c(Nc3cccc(Br)c3)ncnc2c1

SMILES	IC50
c1ccc(CCNc2ncnc3ccccc23)cc1	4.1 µM
